This passage reports MIC results from EP0135194A1, “Azetidinones and their production” (Takeda Chemical Industries, Ltd., priority 1983, dated 1985).

Structures can show the parent of a compound that is named as a salt. Where only a bound is given, the exact number is not on record here.

Test in all cases: MIC by agar dilution method
Common to all, as to type: cell-based
(In general: In agar dilution, organisms are placed on agar that contains the substance at set levels.)

In test [1] the test system is Enterobacter cloacae IFO 12937. As to conditions: IFO12937, test organism (6), Trypticase soy agar, about 10^8 CFU/mℓ, overnight at 37°C. The protocol:
(§1) With regard to the objective compounds as obtained in Examples 2 to 5 and 17 to 19, MICs (µg/mℓ) were measured by the method to be described below and the results are tabulated in the following table.
(§2) The MIC of a test compound was determined by the agar dilution method. Thus, 1.0 mℓ each of successively diluted,; aqueous solutions of a test compound are poured in a petri dish, respectively, and then 9.0 mℓ of Trypticase soy agar was poured, followed by mixing. A suspension (about 10^8 CFU/ mℓ) of a test organism was smeared on the mixed agar plates. After incubation overnight at 37°C, the minimum concentration of the test compound to inhibit fully the growth of the test organism is determined as the minimal inhibitory concentration (MIC).
(§3) • (1) Escherchia coli NIHJ JC-2; • (2) Serratia marcescens IFO 12648 • (3) Proteus vulgaris IFO 3988 • (4) Proteus mirabilis IFO 3849 • (5) Pseudomonas aeruginosa IFO 3455 • (6) Enterobacter cloacae IFO 12937

Test [2] concerns Escherchia coli NIHJ JC-2. As to conditions: test organism (1); Trypticase soy agar, about 10^8 CFU/mℓ, overnight at 37°C. The protocol:
as §1, §2, §3

The subject of test [3] is Pseudomonas aeruginosa IFO 3455. As to conditions: IFO3455, test organism (5), Trypticase soy agar, about 10^8 CFU/mℓ, overnight at 37°C. Here is the method:
as §1, §2, §3

For test [4], the system named is Proteus mirabilis IFO 3849. As to conditions: IFO3849, test organism (4), Trypticase soy agar, about 10^8 CFU/mℓ, overnight at 37°C. The protocol:
as §1, §2, §3

For test [5], the system named is Serratia marcescens IFO 12648. The note with it: IFO12648, test organism (2), Trypticase soy agar, about 10^8 CFU/mℓ, overnight at 37°C. The protocol:
as §1, §2, §3

The subject of test [6] is Proteus vulgaris IFO 3988. As to conditions: IFO3988, test organism (3), Trypticase soy agar, about 10^8 CFU/mℓ, overnight at 37°C. Here is the method:
as §1, §2, §3

For `NC(=O)OC[C@H]1[C@H](NC(=O)/C(=N\OCC(=O)O)c2csc(N)n2)C(=O)N1OCC(=O)O` (relative stereo) [Example 17, trans-3-[2-(2-aminothiazol-4-yl)-(Z)-2-carboxymethoxyiminoacetamido]-4-carbamoyloxymethyl-l-carboxy-methoxy-2-azetidinone disodium salt], the MIC turned out to be 0.78 µg/mL in test [1]; 0.39 µg/mL in test [2]; 100 µg/mL in test [3]; 0.39 µg/mL in test [4]; 0.39 µg/mL in test [5]; 0.39 µg/mL in test [6].

In the case of `CC(C)(O/N=C(\C(=O)N[C@@H]1C(=O)N(OCC(=O)O)[C@H]1COC(N)=O)c1csc(N)n1)C(=O)O` (relative stereo) [Example 18, trans-3-[2-(2-aminothiazol - 4-yl) - (Z) -2-(1-carboxy-1-methylethoxyimino)acetamido]-4-carbamoyloxymethyl-l-carboxymethoxy-2-azetidinone disodium salt], the MIC is 0.78 µg/mL in test [1]; 0.78 µg/mL in test [2]; 12.5 µg/mL in test [3]; less than 0.1 µg/mL in test [4]; 0.39 µg/mL in test [5]; less than 0.1 µg/mL in test [6].

For `CO/N=C(\C(=O)N[C@@H]1C(=O)N(OCC(=O)O)[C@H]1C)c1csc(N)n1` [Example 2, (3S,4S)-3-[2-aminothiazol-4-yl)-(Z)-2-methoxyiminoacetamido]-1-carboxymethoxy-4-methyl-2-azetidinone monosodium salt], the MIC in test [1] is 12.5 µg/mL; in test [2], 0.39 µg/mL; in test [3], greater than 100 µg/mL; in test [4], 0.39 µg/mL; in test [5] it was 0.39 µg/mL; in test [6], 0.39 µg/mL.

Consider `C[C@H]1[C@H](NC(=O)/C(=N\OC(C)(C)C(=O)O)c2csc(N)n2)C(=O)N1OCC(=O)O` [Example 3, (3S,4S)-3-[2-(2-aminothiazol-4-yl)-(Z)-2-(1-carboxy-1-methylethoxyimino)acetamido]-1-carboxymethoxy-4-methyl-2-azetidinone disodium salt], for which the minimal inhibitory concentration (MIC) in test [1] was 12.5 µg/mL; in test [2] it was 0.39 µg/mL; in test [3] it was 6.25 µg/mL; in test [4], less than 0.1 µg/mL; in test [5] it was 0.39 µg/mL; in test [6] it was less than 0.1 µg/mL.

For the molecule `CCN1CCN(C(=O)N[C@@H](C(=O)N[C@@H]2C(=O)N(OCC(=O)O)[C@H]2C)c2ccccc2)C(=O)C1=O` [Example 4, (3S,4S)-1-carboxymethoxy-3-[(D)-2-(4-ethyl-2,3-dioxopiperazine-1-carbonylamino)-2-phenylacetamido]-4-methyl-2-azetidinone monosodium salt], the MIC is greater than 100 µg/mL in test [1]; 12.5 µg/mL in test [2]; 25 µg/mL in test [3]; 12.5 µg/mL in test [4]; 6.25 µg/mL in test [5]; 1.56 µg/mL in test [6].

As for `CC(C)(O/N=C(\C(=O)N[C@H]1CN(OCC(=O)O)C1=O)c1csc(N)n1)C(=O)O` [Example 5, (3S)-3-[2-(2-aminothiazol-4-yl)-(Z)-2-(1-carboxy-1-methylethoxyimino)acetamido]-1-carboxymethoxy-2-azetidinone disodium salt], the MIC came to 50 µg/mL in test [1]; 0.78 µg/mL in test [2]; 6.25 µg/mL in test [3]; 1.56 µg/mL in test [4]; 1.56 µg/mL in test [5]; 0.78 µg/mL in test [6].

Consider `C[C@H]1[C@H](NC(=O)/C(=N\OCC(=O)O)c2csc(N)n2)C(=O)N1OCC(=O)O` [Example 19, (3S,4S)-3-[2-(2-aminothiazol-4-yl)-(Z)-2-carboxymethoxy-iminoacetamido]-1-carboxymethoxy-4-methyl-2-azetidinone disodium salt], for which the MIC is 50 µg/mL in test [1]; 0.39 µg/mL in test [2]; greater than 100 µg/mL in test [3]; 0.39 µg/mL in test [4]; 0.39 µg/mL in test [5]; 0.39 µg/mL in test [6].

As a reminder, the MIC is the least concentration at which growth counts as inhibited. High values mean weaker potency, low ones greater potency.
